# In patent US10709709B2, “Substituted carbonucleoside derivatives useful as anticancer agents” (Pfizer Inc., priority 2016, dated 2020):
# pIC50: −log10 of the molar value.
# Tests used:
# [1] = target: PRMT5/MEP50 protein complex (Homo sapiens (Human), UniProt O14744); experiment: PRMT5 biochemical assay (3H-SAM methylation of H4(1-21) peptide, filter plate scintillation); conditions: 10 nM PRMT5/MEP50 complex, 200 nM H4(1-21) peptide, 1 uM SAM, 25 minute incubation at room temperature
# In short: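 Human PRMT5/MEP50 complex (10 nM) methylating H4(1-21) peptide (200 nM) with 3H/unlabelled SAM (1 uM final) in pH 8.5 Tris buffer, 25 min at room temperature. Stopped with TCA, 3H-peptide captured on filter plates and scintillation-counted. IC50 from 4-parameter fit.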
# [2] = test system: A549 lung adenocarcinoma cells; experiment: A549 proliferation assay (Cell Titer Glo); assay type: cell-based; conditions: 7 days with compound, cell viability by Cell Titer Glo (ATP)
# In short: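 A549 cells plated overnight, then treated with nine-point 3.3-fold dilutions (final top 10 μM, 0.2% DMSO) for 7 days at 37 °C, with media and compound refreshed on day 4. Viability measured as ATP by Cell Titer Glo luminescence; IC50 from 4-parameter fit normalized to DMSO control.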
# PRMT5/MEP50 protein complex, sequence (O14744 other isoform, or with tags, fused parts or gaps): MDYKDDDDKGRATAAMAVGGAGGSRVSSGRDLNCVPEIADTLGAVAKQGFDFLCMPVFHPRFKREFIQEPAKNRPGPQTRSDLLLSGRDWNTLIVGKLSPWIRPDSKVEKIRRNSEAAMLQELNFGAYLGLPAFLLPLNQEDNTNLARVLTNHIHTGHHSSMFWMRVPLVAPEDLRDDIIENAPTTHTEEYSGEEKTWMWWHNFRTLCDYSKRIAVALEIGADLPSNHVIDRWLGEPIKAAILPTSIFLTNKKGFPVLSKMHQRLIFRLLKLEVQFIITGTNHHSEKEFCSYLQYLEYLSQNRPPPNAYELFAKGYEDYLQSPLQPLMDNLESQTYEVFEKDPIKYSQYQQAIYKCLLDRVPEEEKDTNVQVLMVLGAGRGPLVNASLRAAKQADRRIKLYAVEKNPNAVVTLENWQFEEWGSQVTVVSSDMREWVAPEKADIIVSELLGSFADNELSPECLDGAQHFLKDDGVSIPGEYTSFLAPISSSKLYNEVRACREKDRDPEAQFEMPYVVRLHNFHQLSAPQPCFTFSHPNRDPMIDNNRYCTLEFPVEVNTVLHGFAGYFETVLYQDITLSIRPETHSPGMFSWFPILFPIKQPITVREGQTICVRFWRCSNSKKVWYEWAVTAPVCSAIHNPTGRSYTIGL
# PRMT5/MEP50 protein complex, sequence (Q9BQA1 whole entry partner): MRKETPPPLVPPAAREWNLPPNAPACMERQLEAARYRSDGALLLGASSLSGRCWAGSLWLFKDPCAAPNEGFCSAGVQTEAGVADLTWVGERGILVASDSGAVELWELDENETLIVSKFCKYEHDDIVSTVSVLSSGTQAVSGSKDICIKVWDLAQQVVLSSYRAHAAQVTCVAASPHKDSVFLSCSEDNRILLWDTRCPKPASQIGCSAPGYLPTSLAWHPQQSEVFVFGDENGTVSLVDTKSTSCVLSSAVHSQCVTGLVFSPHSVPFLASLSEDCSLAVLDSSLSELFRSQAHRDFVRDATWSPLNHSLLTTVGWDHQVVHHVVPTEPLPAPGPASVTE
pIC50 [1],"pIC50 ([2]; Homo sapiens, A549, 168 h)",pIC50 [2],Compound,"pIC50 ([2]; Homo sapiens, 168 h)"
9.00,6.94,–,"Cc1ncnc2c1ccn2[C@@H]1C[C@H](Oc2cc(Br)c(F)c3c2CNCC3)[C@@H](O)[C@H]1O [Example 94, (1S,2S,3S,5R)-3-((6-bromo-5-fluoro-1,2,3,4-tetrahydroisoquinolin-8-yl)oxy)-5-(4-methyl-7H-pyrrolo[2,3-d]pyrimidin-7-yl)cyclopentane-1,2-diol]",–
8.70,6.14,–,"Cc1ncnc2c1ccn2[C@@H]1C[C@H](Oc2cc(Cl)cc3c2CNCCO3)[C@@H](O)[C@H]1O [Example 204, (1S,2S,3S,5R)-3-((8-chloro-2,3,4,5-tetrahydrobenzo[f][1,4]oxazepin-6-yl)oxy)-5-(4-methyl-7H-pyrrolo[2,3-d]pyrimidin-7-yl)cyclopentane-1,2-diol]",–
9.00,–,7.85,"Cc1ncnc2c1ccn2[C@@H]1C[C@H](Oc2cc(C(F)F)c(F)c3c2CNCC3C)[C@@H](O)[C@H]1O (stereo partly drawn) [Example 211, (1S,2S,3S,5R)-3-((6-(difluoromethyl)-5-fluoro-4-methyl-1,2,3,4-tetrahydroisoquinolin-8-yl)oxy)-5-(4-methyl-7H-pyrrolo[2,3-d]pyrimidin-7-yl)cyclopentane-1,2-diol]",–
9.00,5.42,–,"COc1cc(O[C@H]2C[C@@H](n3ccc4c(C)ncnc43)[C@H](O)[C@@H]2O)c2c(c1F)CCNC2 [Example 198, (1S,2S,3S,5R)-3-((5-fluoro-6-methoxy-1,2,3,4-tetrahydroisoquinolin-8-yl)oxy)-5-(4-methyl-7H-pyrrolo[2,3-d]pyrimidin-7-yl)cyclopentane-1,2-diol]",–
9.00,6.70,–,"Nc1ncnc2c1c(F)cn2[C@@H]1C[C@H](Oc2cc(F)c(F)c3c2CNCC3)[C@@H](O)[C@H]1O [Example 103, (1S,2S,3R,5S)-3-(4-amino-5-fluoro-7H-pyrrolo[2,3-d]pyrimidin-7-yl)-5-((5,6-difluoro-1,2,3,4-tetrahydroisoquinolin-8-yl)oxy)cyclopentane-1,2-diol]",–
9.00,6.51,–,"Cc1ncnc2c1ccn2[C@@H]1C[C@H](Oc2cc(F)c(F)c3c2CNCC3)[C@@H](O)[C@H]1O [Example 92, (1S,2S,3S,5R)-3-((5,6-difluoro-1,2,3,4-tetrahydroisoquinolin-8-yl)oxy)-5-(4-methyl-7H-pyrrolo[2,3-d]pyrimidin-7-yl)cyclopentane-1,2-diol]",–

Compound,pIC50 [1],"pIC50 ([2]; Homo sapiens, A549, 168 h)",pIC50 [2],"pIC50 ([2]; Homo sapiens, 168 h)"
"Cc1ncnc2c1ccn2[C@@H]1C[C@H]([C@H](O)c2ccc(F)c(F)c2)[C@@H](O)[C@H]1O [Example 3, (1S,2R,3R,5R)-3-[(S)-(3,4-difluorophenyl) (hydroxy)methyl]-5-(4-methyl-7H-pyrrolo[2,3-d]pyrimidin-7-yl)cyclopentane-1,2-diol]",7.49,–,–,5.96
